pEC50, pKd: −log10 of the molar value.
Legend:
[1] = biological target: T1, RARα (Homo sapiens, UniProt P10276); experiment: Holoreceptor transactivation assay, RARα; assay type: cell-based; conditions: CV-1; CV1 cells; relative to all trans retinoic acid; read-out: Transactivation Assay Efficacy (% of RA activity), RARα
T1 construct: expressed in transfected cells; host or cells: CV1
T1 sequence (P10276 1-462): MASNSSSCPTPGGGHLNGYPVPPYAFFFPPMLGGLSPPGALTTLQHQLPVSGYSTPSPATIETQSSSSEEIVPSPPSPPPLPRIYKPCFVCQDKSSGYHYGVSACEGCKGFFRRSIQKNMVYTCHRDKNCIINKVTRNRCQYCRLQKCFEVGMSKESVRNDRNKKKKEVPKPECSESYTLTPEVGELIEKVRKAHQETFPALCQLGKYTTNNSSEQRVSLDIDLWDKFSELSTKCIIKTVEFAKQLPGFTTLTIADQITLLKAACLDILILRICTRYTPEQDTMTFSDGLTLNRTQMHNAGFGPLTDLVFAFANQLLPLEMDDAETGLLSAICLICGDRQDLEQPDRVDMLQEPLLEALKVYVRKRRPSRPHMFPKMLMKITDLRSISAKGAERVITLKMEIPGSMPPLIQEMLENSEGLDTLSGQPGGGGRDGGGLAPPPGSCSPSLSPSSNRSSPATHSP
Excerpt: (§1) A holoreceptor transactivation assay and a ligand binding assay which measure the ability of the compounds of the invention to bind to the several retinoid receptor subtypes, respectively, are described in published PCT Application No. WO W093/11755 (particularly on pages 30-33 and 37-41) published on Jun. 24, 1993, the specification of which is also incorporated herein by reference. A description of the holoreceptor transactivation assay is also provided below.
(§2) CV1 cells (5,000 cells/well) were transfected with an RAR reporter plasmid MTV-TREp-LUC (50 ng) along with one of the […] expression vectors (10 ng) in an automated 96-well format by the calcium phosphate procedure of Heyman et al. Cell 68, 397-406. (8). For RXRα and RXR.GAMMA. transactivation assays, an RXR-responsive reporter plasmid CRBPII-tk-LUC (50 ng) along with the appropriate RXRexpression vectors (10 ng) was used substantially as described by Heyman et al. above, and Allegretto et al. J. Biol. Chem. 268, 26625-26633. For RXRβ transactivation assays, an RXR-responsive reporter plasmid CPRE-tk-LUC ([…]) along with RXRβ expression vector ([…]) was used as described in above. These reporters contain DRI elements from human CRBPII and certain DRI elements from promoter, respectively. (see Mangelsdorf et al. The Retinoids: Biology, Chemistry and Medicine, pp 319-349, Raven Press Ltd., New York and Heyman et al., cited above) (1, 8). A β-galactosidase (50 ng) expression vector was used as an internal control in the transfections to normalize for variations in transfection efficiency. The cells were transfected in triplicate for 6 hours, followed by incubation with retinoids for 36 hours, and the extracts were assayed for luciferase and β-galactosidase activities. The detailed experimental procedure for holoreceptor transactivations has been described in Heyman et al. above, and Allegretto et al. cited above. The results obtained in this assay in connection with examplary compounds in accordance with the present invention are expressed in EC50 numbers, as they are also in the chimeric receptor transactivation assay. The Heyman et al. Cell 68, 397-406, Allegretto et al. J. Biol. Chem. 268, 26625-26633, and Mangelsdorf et al. The Retinoids: Biology, Chemistry and Medicine, pp 319-349, Raven Press Ltd., New York, are expressly incorporated herein by reference. The results of ligand binding assay are expressed in Kd numbers. (See Cheng et al. Biochemical Pharmacology Vol. 22 pp 3099-3108, expressly incorporated herein by reference.)

[2] = biological target: T2, RXRα (Homo sapiens, UniProt P19793); experiment: Holoreceptor transactivation assay, RXRα; assay type: cell-based; conditions: CV1 cells; for pEC50: 36 hours; for Emax: CV-1, relative to all trans retinoic acid, read-out: Transactivation Assay Efficacy (% of RA activity), RXRα
T2 construct: expressed in transfected cells; host or cells: CV1
T2 sequence (P19793 1-462): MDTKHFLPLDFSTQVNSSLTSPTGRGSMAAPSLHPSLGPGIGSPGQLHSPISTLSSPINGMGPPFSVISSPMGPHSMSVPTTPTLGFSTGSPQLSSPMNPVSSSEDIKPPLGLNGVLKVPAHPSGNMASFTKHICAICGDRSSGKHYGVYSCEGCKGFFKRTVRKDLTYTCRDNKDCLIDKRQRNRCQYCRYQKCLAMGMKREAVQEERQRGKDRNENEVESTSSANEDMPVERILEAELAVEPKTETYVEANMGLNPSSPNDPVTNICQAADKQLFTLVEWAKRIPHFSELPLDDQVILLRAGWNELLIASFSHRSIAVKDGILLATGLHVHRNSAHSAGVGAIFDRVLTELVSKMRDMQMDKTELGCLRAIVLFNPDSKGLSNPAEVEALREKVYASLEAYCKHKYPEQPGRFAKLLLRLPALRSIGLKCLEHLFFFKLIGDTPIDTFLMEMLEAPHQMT
Excerpt: as §1, §2

[3] = biological target: T3, RARγ (Homo sapiens, UniProt P13631); experiment: Ligand binding assay, RARγ
T3 construct: expressed in transfected cells; host or cells: CV1
T3 sequence (P13631 1-454): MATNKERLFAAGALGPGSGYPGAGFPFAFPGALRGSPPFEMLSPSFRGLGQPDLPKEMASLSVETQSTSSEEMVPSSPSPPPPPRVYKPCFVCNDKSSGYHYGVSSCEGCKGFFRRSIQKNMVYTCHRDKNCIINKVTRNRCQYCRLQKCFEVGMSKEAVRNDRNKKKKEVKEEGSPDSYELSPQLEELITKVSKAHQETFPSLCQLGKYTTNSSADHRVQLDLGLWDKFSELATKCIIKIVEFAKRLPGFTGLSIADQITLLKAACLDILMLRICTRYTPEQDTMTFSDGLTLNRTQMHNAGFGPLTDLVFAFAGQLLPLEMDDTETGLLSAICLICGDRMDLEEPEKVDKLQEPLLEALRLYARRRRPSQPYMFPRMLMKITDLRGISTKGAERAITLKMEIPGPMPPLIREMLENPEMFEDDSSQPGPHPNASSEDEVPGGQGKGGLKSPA
Excerpt: as §1, §2

Row | Compound | Emax [1] [%] | pEC50 [2] | Emax [2] [%] | pKd [3]
1 | Cc1cc2c(cc1Sc1ncc(C(=O)O)s1)C(C)(C)CCC2(C)C [Compound 15, 2-(5,6,7,8-Tetrahydro-3,5,5,8,8-pentamethyl-2-naphthylthio)-5-thiazolecarboxylic acid] | 1 | 5.64 | 85 | < 6.00
2 | Cc1cc2c(cc1Sc1ccc(C(=O)O)cc1)C(C)(C)CCC2(C)C [Compound 7, 4-(5,6,7,8-tetrahydro-3,5,5,8,8-pentamethyl-2-Daphthylthio)benzoic acid] | 3 | 6.55 | 81 | < 6.00
3 | CC1(C)CCC(C)(C)c2cc(Sc3ccc(C(=O)O)cc3)ccc21 [Compound 2] | 3 | – | 51 | < 6.00
4 | Cc1cc2c(cc1[S+]([O-])c1ccc(C(=O)O)cc1)C(C)(C)CCC2(C)C (centres unmarked) [Compound 9, 4-(5,6,7,8-tetrahydro-3,5,5,8,8-pentamethyl-2-naphthylsulfoxy)benzoic acid] | 5 | – | 17 | < 6.00
5 | Cc1cc2c(cc1S(=O)(=O)c1ccc(C(=O)O)cc1)C(C)(C)CCC2(C)C [Compound 11, 4-(5,6,7,8-tetrahydro-3,5,5,8,8-pentamethyl-2-naphthylsulfonyl)benzoic acid] | 2 | 5.55 | 55 | < 6.00
6 | Cc1cc2c(cc1Sc1ccc(C(=O)O)cn1)C(C)(C)CCC2(C)C [Compound 13] | 1 | 7.27 | 91 | < 5.00
7 | CC1(C)CCC(C)(C)c2cc(S(=O)(=O)c3ccc(C(=O)O)cc3)ccc21 [Compound 5, 4-(5,6,7,8-tetrahydro-5,5,8,8-tetramethyl-2-naphthylsulfonyl)benzoic acid] | 10 | 5.52 | 32 | < 6.00
